# Measured values published in PMC6529808 (Metallomics : integrated biometal science, 2018).
# Biological target: MhuDCH (Mycobacterium tuberculosis, UniProt P9WKH3)
# Type: binding
# Conditions: second site (MhuD-diheme); 5 μM protein, 50 mM Tris pH 7.4, 150 mM NaCl
# Chain of MhuDCH (P9WKH3 whole entry): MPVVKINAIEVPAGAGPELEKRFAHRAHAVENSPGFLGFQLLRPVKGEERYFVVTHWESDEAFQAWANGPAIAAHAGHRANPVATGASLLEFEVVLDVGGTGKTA
compound,measurement,value
C=CC1=C(C)C2=Cc3c(C=C)c(C)c4[n]3[Fe][n]3c(c(C)c(CCC(=O)O)c3=CC3=NC(=C4)C(C)=C3CCC(=O)O)=CC1=N2 [heme],Kd2,3.3 ± 1.1 µM
